Laboratory results taken from patent US10961228B2, “JAK1 selective inhibitors” (AstraZeneca AB, priority 2017, dated 2021).

Experiments:
[1] = system: IL-13 induced STAT6 promotor luciferase reporter in U937 monocytes (U937-STAT6-Luc); assay: Cellular interleukin (IL-13) induced JAK-STAT6-luciferase assay (pSTAT6); assay type: cell-based; details: Homo sapiens, U-937; IL-13 induced STAT6-luciferase, U937-STAT6-Luc cells
Protocol: Cells were harvested by centrifugation at 250 g for 5 min and resuspended in Assay buffer (20 mM HEPES, 1×HBSS and 0.1% BSA) to 1000 cells pr μl. For stimulation of cells was used interleukin (IL-13) also dissolved in Assay buffer to […]. […] Test and control compounds were applied to assay plates (low vol white 384-well plates) in serial dilutions from 10 mM to 0.5 nM at 5 nl pr well in DMSO.
To each well was added 4 μl cells and 4 μl interleukin (IL-13) and the plates were sealed and incubated at 37° C. for 4½ h and then at room temperature for 30 min. The assay was developed by addition of 4 μl pr well of SteadyGlo (Promega) and after […] the plates were read at an Envision plate reader with luminescence filter.

[2] = molecular target: recombinant JAK1 (amino acids 866-1154) (Homo sapiens (Human), UniProt P23458); assay: Enzyme inhibition studies, JAK1 (5 mM ATP, Caliper); assay type: biochemical
Protocol: (§1) JAK enzyme was expressed as N-terminal GST fusion in insect cells and purified by glutathione-affinity and size-exclusion chromatographies. Enzymes were assayed at their approximated high end of physiological ATP concentration of 5 mM, in the presence of inhibitor dosed at 30, 3, 0.3, 0.03, 0.003 and 0 μM final test concentrations.
(§2) Phosphorylated and unphosphotylated peptides were separated and quantified by a Caliper LC3000 system (Caliper Life Sciences, MA) for calculating percent inhibition.

[3] = molecular target: recombinant JAK3 (amino acids 781-1124) (Homo sapiens (Human), UniProt P52333); assay: Enzyme inhibition studies, JAK3 (5 mM ATP, Caliper); assay type: biochemical
Protocol: as §1, §2

[4] = molecular target: recombinant JAK2 (amino acids 831-1132) (Homo sapiens (Human), UniProt O60674); assay: Enzyme inhibition studies, JAK2 (5 mM ATP, Caliper); assay type: biochemical
Protocol: as §1, §2

Sequence of recombinant JAK3 (amino acids 781-1124) (P52333 781-1124): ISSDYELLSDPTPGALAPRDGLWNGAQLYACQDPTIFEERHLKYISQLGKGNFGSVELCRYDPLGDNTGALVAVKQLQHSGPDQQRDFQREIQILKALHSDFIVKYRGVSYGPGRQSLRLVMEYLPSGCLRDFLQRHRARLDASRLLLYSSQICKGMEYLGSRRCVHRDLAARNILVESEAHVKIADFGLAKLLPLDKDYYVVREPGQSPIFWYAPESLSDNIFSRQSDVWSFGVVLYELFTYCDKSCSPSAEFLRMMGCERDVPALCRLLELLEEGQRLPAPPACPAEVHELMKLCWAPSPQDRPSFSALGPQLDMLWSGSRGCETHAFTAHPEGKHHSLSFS
Sequence of recombinant JAK1 (amino acids 866-1154) (P23458 866-1154): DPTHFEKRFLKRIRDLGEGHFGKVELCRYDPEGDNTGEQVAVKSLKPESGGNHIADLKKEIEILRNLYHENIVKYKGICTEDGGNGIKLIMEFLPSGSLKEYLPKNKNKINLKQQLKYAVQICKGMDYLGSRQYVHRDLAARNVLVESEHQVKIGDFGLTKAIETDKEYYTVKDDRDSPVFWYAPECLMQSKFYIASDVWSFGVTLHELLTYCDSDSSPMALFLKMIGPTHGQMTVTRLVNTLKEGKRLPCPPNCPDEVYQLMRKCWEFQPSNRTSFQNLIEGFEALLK
Sequence of recombinant JAK2 (amino acids 831-1132) (O60674 831-1132): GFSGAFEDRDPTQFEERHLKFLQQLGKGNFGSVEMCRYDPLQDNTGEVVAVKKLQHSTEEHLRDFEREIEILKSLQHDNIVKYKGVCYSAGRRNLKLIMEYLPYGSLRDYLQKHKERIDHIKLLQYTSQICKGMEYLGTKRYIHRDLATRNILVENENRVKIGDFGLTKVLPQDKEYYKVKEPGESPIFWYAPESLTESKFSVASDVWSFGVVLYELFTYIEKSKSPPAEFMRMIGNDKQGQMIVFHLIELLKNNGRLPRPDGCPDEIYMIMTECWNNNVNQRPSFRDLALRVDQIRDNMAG

| IC50 [1] [nM] | IC50 [2] [nM] | IC50 [3] [nM] | IC50 [4] [nM] | SMILES |
| --- | --- | --- | --- | --- |
| 90 | 3.6 | > 30000 | 4860 | CC[C@H](C(=O)Nc1cccc2c(-c3nc(Nc4cccc(S(C)(=O)=O)c4F)ncc3F)c[nH]c12)N1CCCN(C)CC1 [Example 17] |
| 1280 | 403 | > 30000 | > 30000 | CC[C@@H](C(=O)Nc1cccc2c(-c3nc(Nc4cccc(S(C)(=O)=O)c4F)ncc3F)c[nH]c12)N1CCCN(C)CC1 [Example 18] |
| 423 | 143 | > 30000 | > 30000 | CC[C@@H](C(=O)Nc1cccc2c(-c3nc(Nc4cccc(S(C)(=O)=O)c4F)ncc3C)c[nH]c12)N1C[C@H](C)N(C)[C@@H](C)C1 [Example 19, (S)-N-(3-(2-((2-fluoro-3-(methylsulfonyl)phenyl)amino)-5-methylpyrimidin-4-yl)-1H-indol-7-yl)-2-((3S,5S)-3,4,5-trimethylpiperazin-1-yl)butanamide] |
| 2230 | 986 | > 30000 | > 30000 | COC[C@@H](C(=O)Nc1cccc2c(-c3nc(Nc4cccc(S(C)(=O)=O)c4F)ncc3C)c[nH]c12)N1C[C@H](C)N(C)[C@@H](C)C1 [Example 21, (S)-N-(3-(2-((2-fluoro-3-(methylsulfonyl)phenyl)amino)-5-methylpyrimidin-4-yl)-1H-indol-7-yl)-3-methoxy-2-((3S,5S)-3,4,5-trimethylpiperazin-1-yl)propanamide] |
| 29 | < 3 | > 30000 | 2560 | COC[C@H](C(=O)Nc1cccc2c(-c3nc(Nc4cccc(S(C)(=O)=O)c4F)ncc3C)c[nH]c12)N1C[C@H](C)N(C)[C@@H](C)C1 [Example 22, (R)-N-(3-(2-((2-fluoro-3-(methylsulfonyl)phenyl)amino)-5-methylpyrimidin-4-yl)-1H-indol-7-yl)-3-methoxy-2-((3S,5S)-3,4,5-trimethylpiperazin-1-yl)propanamide] |
| 866 | 183 | > 30000 | > 30000 | CC[C@@H](C(=O)Nc1cccc2c(-c3nc(Nc4cccc(S(C)(=O)=O)c4F)ncc3F)c[nH]c12)N1C[C@H](C)N(C)[C@@H](C)C1 [Example 23, (S)-N-(3-(5-fluoro-2-(2-fluoro-3-(methylsulfonyl)phenylamino)pyrimidin-4-yl)-1H-indol-7-yl)-2-((3S,5S)-3,4,5-trimethylpiperazin-1-yl)butanamide] |
| 42 | 4.2 | > 30000 | 3460 | Cc1cnc(Nc2cccc(S(C)(=O)=O)c2F)nc1-c1c[nH]c2c(NC(=O)[C@@H](C)N3CCNCC3)cccc12 [Example 24, (R)-N-(3-(2-((2-fluoro-3-(methylsulfonyl)phenyl)amino)-5-methylpyrimidin-4-yl)-1H-indol-7-yl)-2-(piperazin-1-yl)propanamide] |
| 63 | 22.8 | > 30000 | 6590 | Cc1cnc(Nc2cccc(S(C)(=O)=O)c2F)nc1-c1c[nH]c2c(NC(=O)[C@H](C)N3CCNCC3)cccc12 [Example 25, (S)-N-(3-(2-((2-fluoro-3-(methylsulfonyl)phenyl)amino)-5-methylpyrimidin-4-yl)-1H-indol-7-yl)-2-(piperazin-1-yl)propanamide] |
| 38 | < 3 | > 30000 | 456 | CC[C@H](C(=O)Nc1cccc2c(-c3nc(Nc4cccc(S(C)(=O)=O)c4F)ncc3C)c[nH]c12)N1C[C@@H](C)N[C@H](C)C1 [Example 26, (R)-2-((3R,5R)-3,5-dimethylpiperazin-1-yl)-N-(3-(2-((2-fluoro-3-(methylsulfonyl)phenyl)amino)-5-methylpyrimidin-4-yl)-1H-indol-7-yl)butanamide] |

Continued, molecule first:

| SMILES | IC50 [1] [nM] | IC50 [2] [nM] | IC50 [3] [nM] | IC50 [4] [nM] |
| --- | --- | --- | --- | --- |
| Cc1cnc(Nc2cccc(S(C)(=O)=O)c2F)nc1-c1c[nH]c2c(NC(=O)[C@@H](C)N3C[C@H](C)N(C)[C@@H](C)C3)cccc12 [Example 7, (R)-N-(3-(2-((2-fluoro-3-(methylsulfonyl)phenyl)amino)-5-methylpyrimidin-4-yl)-1H-indol-7-yl)-2-((3S,5S)-3,4,5-trimethylpiperazin-1-yl)propanamide] | 57 | 6.6 | > 30000 | 14500 |
| C[C@H](C(=O)Nc1cccc2c(-c3nc(Nc4cccc(S(C)(=O)=O)c4F)ncc3F)c[nH]c12)N1C[C@H](C)N(C)[C@@H](C)C1 [Example 8, (R)-N-(3-(5-fluoro-2-((2-fluoro-3-(methylsulfonyl)phenyl)amino)pyrimidin-4-yl)-1H-indol-7-yl)-2-((3S,5S)-3,4,5-trimethylpiperazin-1-yl)propanamide] | 78 | 24.5 | > 30000 | > 30000 |
| Cc1cnc(Nc2cccc(S(C)(=O)=O)c2F)nc1-c1c[nH]c2c(NC(=O)[C@H](C)N3C[C@H](C)N[C@@H](C)C3)cccc12 [Example 10, (S)-2-((3S,5S)-3,5-dimethylpiperazin-1-yl)-N-(3-(2-((2-fluoro-3-(methylsulfonyl)phenyl)amino)-5-methylpyrimidin-4-yl)-1H-indol-7-yl)propanamide] | 352 | 39.8 | > 30000 | 21000 |
| C[C@H](C(=O)Nc1cccc2c(-c3nc(Nc4cccc(S(C)(=O)=O)c4F)ncc3F)c[nH]c12)N1C[C@H](C)N[C@@H](C)C1 [Example 11, (R)-2-((3S,5S)-3,5-dimethylpiperazin-1-yl)-N-(3-(5-fluoro-2-((2-fluoro-3-(methylsulfonyl)phenyl)amino)pyrimidin-4-yl)-1H-indol-7-yl)propanamide] | 85 | 13.1 | > 30000 | 11100 |
| C[C@H]1CN([C@@H](C)C(=O)Nc2cccc3c(-c4nc(Nc5cccc(S(C)(=O)=O)c5F)ncc4F)c[nH]c23)C[C@H](C)N1 [Example 12, (S)-2-((3S,5S)-3,5-dimethylpiperazin-1-yl)-N-(3-(5-fluoro-2-((2-fluoro-3-(methylsulfonyl)phenyl)amino)pyrimidin-4-yl)-1H-indol-7-yl)propanamide] | > 4950 | 1130 | > 30000 | > 30000 |
| CC[C@@H](C(=O)Nc1cccc2c(-c3nc(Nc4cccc(S(C)(=O)=O)c4F)ncc3C)c[nH]c12)N1CCN(C)CC1 [Example 13, (S)-N-(3-(2-((2-fluoro-3-(methylsulfonyl)phenyl)amino)-5-methylpyrimidin-4-yl)-1H-indol-7-yl)-2-(4-methylpiperazin-1-yl)butanamide] | 97 | 22.4 | > 30000 | 26100 |
| CC[C@H](C(=O)Nc1cccc2c(-c3nc(Nc4cccc(S(C)(=O)=O)c4F)ncc3C)c[nH]c12)N1CCN(C)CC1 [Example 14, (R)-N-(3-(2-((2-fluoro-3-(methylsulfonyl)phenyl)amino)-5-methylpyrimidin-4-yl)-1H-indol-7-yl)-2-(4-methylpiperazin-1-yl)butanamide] | 21 | < 3 | > 30000 | 2430 |
